Experimental data: patent US7691901B2, “Carotenoid analogs or derivatives for the inhibition and amelioration of inflammation” (Cardax Pharmaceuticals Inc., priority 2004, dated 2010)

Assay type: physicochemical
Description: Determination of aqueous solubility/dispersibility. 30.13 mg of 3 was added to 1 mL of USP-purified water. The sample was rotated for 2 hours, then centrifuged for 5 minutes. […] A 125-μL aliquot of the solution was then diluted to 25 mL. The sample was analyzed by UV/Vis spectroscopy at 436 nm, and the absorbance was compared to a standard curve compiled from 4 standards of known concentration.
The sample was rotated for 2 hours, then centrifuged for 5 minutes. […] A 125-μL aliquot of the solution was then diluted to 25 mL. The sample was analyzed by UV/Vis spectroscopy at 411 nm, and the absorbance was compared to a standard curve compiled from 4 standards of known concentration.

In the case of `CC1=C(/C=C/C(C)=C/C=C/C(C)=C/C=C/C=C(C)/C=C/C=C(C)/C=C/C2=C(C)C(=O)C(OC(=O)CCC(=O)O)CC2(C)C)C(C)(C)CC(OC(=O)CCC(=O)O)C1=O` (stereo not shown) [Cardax, disodium disuccinate astaxanthin], the water dispersibility is reported as 8.64 mg/mL.
